“And” between values parts separate entries of the source, which are not always exact repeats. Equal values may be shown once.
What was measured:
BLK = BLK (Homo sapiens, UniProt P51451); settings: cited from earlier work
EGFR = target: T1, EGFR (Homo sapiens, UniProt P00533); settings: cited from earlier work
T1 construct: host or cells: HEK296T (so in the source)

TEC = target: T2, TEC (Homo sapiens, UniProt P42680); settings: 1 µM inhibition screening; ref SI 8–10; cited from earlier work
T2 construct: host or cells: HEK296T (so in the source)
T2 sequence (P42680 1-631): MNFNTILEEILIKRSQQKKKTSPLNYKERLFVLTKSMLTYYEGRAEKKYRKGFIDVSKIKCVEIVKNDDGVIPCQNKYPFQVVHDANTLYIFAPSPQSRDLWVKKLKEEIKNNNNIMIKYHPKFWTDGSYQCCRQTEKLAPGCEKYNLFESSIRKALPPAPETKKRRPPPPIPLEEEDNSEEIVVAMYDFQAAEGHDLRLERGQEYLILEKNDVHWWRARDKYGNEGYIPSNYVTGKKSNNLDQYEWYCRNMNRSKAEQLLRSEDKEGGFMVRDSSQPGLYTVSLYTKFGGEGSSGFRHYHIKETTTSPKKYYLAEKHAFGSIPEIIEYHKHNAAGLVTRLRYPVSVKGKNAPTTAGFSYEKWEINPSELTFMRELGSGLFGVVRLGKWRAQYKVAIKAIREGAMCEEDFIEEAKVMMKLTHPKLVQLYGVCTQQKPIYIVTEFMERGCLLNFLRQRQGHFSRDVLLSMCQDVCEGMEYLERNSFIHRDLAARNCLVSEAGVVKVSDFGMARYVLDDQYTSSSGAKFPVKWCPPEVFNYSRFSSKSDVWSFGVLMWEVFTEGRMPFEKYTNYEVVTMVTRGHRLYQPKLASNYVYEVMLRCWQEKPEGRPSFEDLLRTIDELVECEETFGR

TXK = target: T3, TXK (Homo sapiens, UniProt P42681); settings: cited from earlier work
T3 construct: host or cells: HEK296T (so in the source)
T3 sequence (P42681 1-527): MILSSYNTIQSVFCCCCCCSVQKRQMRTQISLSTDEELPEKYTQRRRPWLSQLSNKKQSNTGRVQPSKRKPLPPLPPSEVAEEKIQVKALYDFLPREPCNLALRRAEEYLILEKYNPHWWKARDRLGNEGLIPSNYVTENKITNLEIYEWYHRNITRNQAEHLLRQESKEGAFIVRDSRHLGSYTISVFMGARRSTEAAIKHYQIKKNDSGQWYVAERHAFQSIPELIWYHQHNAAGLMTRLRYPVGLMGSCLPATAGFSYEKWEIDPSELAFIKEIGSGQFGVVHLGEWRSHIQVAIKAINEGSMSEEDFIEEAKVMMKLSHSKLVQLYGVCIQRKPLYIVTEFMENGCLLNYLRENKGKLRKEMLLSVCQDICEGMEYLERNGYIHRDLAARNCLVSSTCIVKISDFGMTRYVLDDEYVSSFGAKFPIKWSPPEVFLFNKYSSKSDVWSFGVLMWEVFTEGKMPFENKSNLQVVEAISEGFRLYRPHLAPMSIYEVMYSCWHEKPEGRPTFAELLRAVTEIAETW

Her2 = settings: read-out: IC50, Her2; Table S3 heat map; ref SI 1-19; cited from earlier work
BTK = BTK (Homo sapiens, UniProt Q06187); design: purchased Promega Corporation V2941; settings: Table S3 heat map; ref SI 1-19; read-out: IC50, BTK; cited from earlier work
BTK, sequence (Q06187 whole entry): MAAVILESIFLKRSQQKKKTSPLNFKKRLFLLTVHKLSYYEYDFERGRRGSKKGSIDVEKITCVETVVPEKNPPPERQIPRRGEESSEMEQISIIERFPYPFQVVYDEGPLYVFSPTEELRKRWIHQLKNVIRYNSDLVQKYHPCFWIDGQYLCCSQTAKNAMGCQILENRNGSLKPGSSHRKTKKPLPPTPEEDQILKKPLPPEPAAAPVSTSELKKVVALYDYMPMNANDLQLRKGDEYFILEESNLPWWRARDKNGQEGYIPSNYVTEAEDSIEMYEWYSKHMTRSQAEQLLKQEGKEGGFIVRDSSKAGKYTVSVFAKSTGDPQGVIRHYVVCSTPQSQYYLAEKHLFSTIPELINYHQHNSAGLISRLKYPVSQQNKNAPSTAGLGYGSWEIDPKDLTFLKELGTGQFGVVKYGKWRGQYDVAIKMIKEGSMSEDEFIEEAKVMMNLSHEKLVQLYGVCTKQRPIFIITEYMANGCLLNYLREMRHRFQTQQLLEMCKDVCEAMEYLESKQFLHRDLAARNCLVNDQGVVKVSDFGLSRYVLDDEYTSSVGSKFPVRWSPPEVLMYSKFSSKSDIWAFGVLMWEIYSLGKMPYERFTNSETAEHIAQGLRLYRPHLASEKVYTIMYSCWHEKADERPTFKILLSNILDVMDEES

HBEC-5i cell model = assay: In vitro blood–brain barrier permeability (translocation), HBEC-5i cell model; type: in vitro ADME, human; settings: Translocation 24 h, compound 15 μM
Method: Human cerebral microvascular endothelial cells (HBEC-5i) were cultured as a monolayer on attachment factor protein solution (AF)-coated T-flasks (Gibco), using DMEM/F12 medium (Gibco), supplemented with 10% FBS, 1% penicillin/streptomycin, and 40.0 μg/mL endothelial cell growth supplement (ECGS, Sigma), according to the manufacturer’s instructions. The capacity of the compounds to cross the brain–blood barrier (BBB) was evaluated using an in vitro HBEC-5i cell model, as previously described.[29] Samples from the apical and basolateral sides were collected, and fluorescence intensity was measured using a Varioskan LUX multimode microplate reader. The retention was considered the difference between the initial fluorescence of compounds (100%) and the aggregated apical and basolateral fluorescence.

MOLM-13 cells (AML) = assay: Cell viability assay (CellTiter-Glo), MOLM-13; type: cell-based; settings: Homo sapiens, 72 h, n = 3
Method: (§1) All cell lines were purchased from ATCC, except for DoHH-2 cells that were obtained from DSMZ. Cells were cultivated in complete DMEM supplemented with 10% (vol/vol) FBS (Gibco) and 1% of penicillin/streptomycin (Gibco). The cells were grown in a humidified atmosphere of 5% CO2 at 37°C, with the medium changed every other day.
(§2) Cells were inoculated at a density of 5000 cells/well. Serially diluted compounds (starting at 50 μM) were added 24 h later. The assay was performed in triplicates. After 72 h of incubation, cellular viability was assessed by CellTiter-Glo (Promega) according to the manufacturer’s instructions. The values were normalized with the vehicle (DMSO), and the IC50 was calculated using GraphPad Prism 8.

DoHH-2 cells (DLBCL) = assay: Cell viability assay (CellTiter-Glo), DoHH-2; type: cell-based; settings: Homo sapiens, 72 h, n = 3
Method: as §1, §2

Raji cells = assay: Mice xenograft model of Burkitt’s lymphoma (subcutaneous Raji cells); type: in vivo
Method: Female adult BALB/c/NSG mice were injected subcutaneously with 1 × 10^6 Raji cells, in a 1:1 solution of Matrigel Matrix (Corning) to create solid tumors. When tumors reached 180 mm^3 on average, mice were randomized into four groups (n = 6/group), and dosing began every 2 days. […] Tumor size and body weight were monitored periodically for 12 days. At the end of the experiment, mice necropsies were performed. Stereological analysis was conducted by the Histopathology Unit at Instituto Gulbenkian de Ciência and by the Comparative Pathology Unit at Instituto de Medicina Molecular João Lobo Antunes. Quantification of metastases and cell necrosis was performed in all groups (n = 5/group). Statistical analysis was conducted using one-way ANOVA. The Dunnet test was used to analyze the statistical significance between the treatment groups and the control.

Raji cells (BL) = assay: Cell viability assay (CellTiter-Glo), Raji; type: cell-based; settings: Homo sapiens, 72 h, n = 3
Method: as §1, §2

HL-60 cells (APML) = assay: Cell viability assay (CellTiter-Glo), HL-60; type: cell-based; settings: Homo sapiens, 72 h, n = 3
Method: as §1, §2

PBMCs from CLL patients = assay: Zebrafish patient-derived xenografts of chronic lymphocytic leukemia; type: in vivo; settings: all zPDXs, 48 h of treatment
Method: Whole blood (3–6 mL) from CLL patients (Supporting Table S1) was collected, and PBMCs were purified by Ficoll-Paque PLUS (GE Healthcare) density centrifugation.
The collected PBMCs were resuspended in RPMI (Biowest) with 3 times their volume and centrifuged at 1400 rpm, 4 °C, for 7 min. Cell pellets were resuspended in DPBS 1× (Biowest) supplemented with universal nuclease at 25 U/mL (Thermo Scientific). Concentration was normalized to […] for zebrafish patient-derived xenograft (zPDX) generation. Prior to drug efficacy analysis in zebrafish, the cells were distributed to proceed for flow cytometry, to determine the percentage of CD19+CD5+ cells within the CD45+ population, from PBMCs of each CLL patient. The maximum tolerated concentration was also determined for each compound in noninjected zebrafish larvae (Supporting Figure S1).
Zebrafish larvae were anesthetized with Tricaine 1×, and thawed PBMCs were microinjected into the perivitelline space of anesthetized zebrafish larvae at 48 h post fertilization. […] At the end of the assay, 4 days post injection, zebrafish xenografts were sacrificed with an overdose of Tricaine 25× and fixed in 4% formaldehyde (Thermo Scientific) overnight, followed by storage in 100% methanol (VWR) at −20 °C.
The whole mount immunofluorescence protocol was started by rehydrating the xenografts through methanol series (75% > 50% > 25% in PBS 1×-Triton 0.1%). Next, the xenografts were permeabilized in PBS 1× with 0.1% (v/v) Triton and incubated in a blocking solution (containing 1% BSA and 1.5% goat serum) for 1 h at room temperature. The xenografts were incubated with the primary antibodies (anti-cleaved caspase 3—Cell Signaling Technology, clone Asp175, 9661, 1:100; anti-human mitochondria—Merck Millipore, clone 113-1, MAB1273, 1:50) diluted in the blocking solution overnight at 4 °C, followed by additional overnight incubation with 1:400 of secondary antibodies: Alexa goat anti-rabbit 594 (35560, Thermo Scientific) and Alexa goat anti-mouse 647 (84545, Thermo Scientific), and nuclei counterstaining with DAPI at 50 μg/mL (Sigma-Aldrich).
All images were obtained using a Zeiss LSM 980 Upright confocal laser scanning microscope. Xenografts were mounted in in-house Mowiol mounting media, and sequential images along tumor’s depth (from cloaca until the end of the tail) with a 5 μm interval were acquired using the z-stack function. […] For tumor burden, the area occupied by the PBMCs in each slice of the z-stack pile was determined by ImageJ software and summed up to obtain the tumor burden per xenograft. […]
Statistical analysis was performed using GraphPad Prism 8. […] A Gaussian distribution was only assumed for data sets that pass both normality tests and were analyzed by an unpaired t-test with Welch’s correction. […]

[1] = 1 µM inhibition screening, ref SI 8–10
[2] = 10 mg/kg, average of 5 animals, stereological analysis
[3] = 10 mg/kg, individual animals #1 to #5 in order

T1 sequence (P00533 25-1210): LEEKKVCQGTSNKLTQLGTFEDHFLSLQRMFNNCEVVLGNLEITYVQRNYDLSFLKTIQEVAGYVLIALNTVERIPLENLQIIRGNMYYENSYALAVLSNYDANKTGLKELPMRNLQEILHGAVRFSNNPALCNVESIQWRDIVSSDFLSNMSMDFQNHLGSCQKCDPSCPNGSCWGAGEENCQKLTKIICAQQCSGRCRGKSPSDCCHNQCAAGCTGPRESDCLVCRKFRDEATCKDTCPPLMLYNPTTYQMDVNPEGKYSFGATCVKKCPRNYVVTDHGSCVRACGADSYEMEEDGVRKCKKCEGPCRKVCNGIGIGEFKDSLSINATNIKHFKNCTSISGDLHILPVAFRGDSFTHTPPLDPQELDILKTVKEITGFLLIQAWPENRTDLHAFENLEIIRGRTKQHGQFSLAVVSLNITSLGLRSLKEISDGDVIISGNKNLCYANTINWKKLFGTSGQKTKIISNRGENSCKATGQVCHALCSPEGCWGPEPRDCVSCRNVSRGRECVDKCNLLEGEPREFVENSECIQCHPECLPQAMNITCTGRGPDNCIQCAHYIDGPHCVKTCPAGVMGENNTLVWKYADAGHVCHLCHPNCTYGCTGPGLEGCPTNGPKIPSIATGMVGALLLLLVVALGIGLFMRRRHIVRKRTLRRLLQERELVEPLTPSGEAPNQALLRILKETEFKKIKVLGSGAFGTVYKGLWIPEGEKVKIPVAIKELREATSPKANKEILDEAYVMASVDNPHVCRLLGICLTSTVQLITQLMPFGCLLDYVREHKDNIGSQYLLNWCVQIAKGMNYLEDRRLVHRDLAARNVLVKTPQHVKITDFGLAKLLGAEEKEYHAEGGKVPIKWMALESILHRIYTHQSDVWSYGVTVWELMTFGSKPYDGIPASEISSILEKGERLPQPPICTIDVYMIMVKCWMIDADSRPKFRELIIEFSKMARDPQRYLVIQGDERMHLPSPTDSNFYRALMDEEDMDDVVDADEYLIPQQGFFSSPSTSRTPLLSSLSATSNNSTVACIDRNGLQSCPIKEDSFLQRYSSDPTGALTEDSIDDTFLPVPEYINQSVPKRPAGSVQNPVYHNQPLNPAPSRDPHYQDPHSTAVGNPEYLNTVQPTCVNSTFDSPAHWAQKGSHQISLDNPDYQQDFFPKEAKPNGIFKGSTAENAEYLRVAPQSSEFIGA
BLK, sequence (P51451 whole entry): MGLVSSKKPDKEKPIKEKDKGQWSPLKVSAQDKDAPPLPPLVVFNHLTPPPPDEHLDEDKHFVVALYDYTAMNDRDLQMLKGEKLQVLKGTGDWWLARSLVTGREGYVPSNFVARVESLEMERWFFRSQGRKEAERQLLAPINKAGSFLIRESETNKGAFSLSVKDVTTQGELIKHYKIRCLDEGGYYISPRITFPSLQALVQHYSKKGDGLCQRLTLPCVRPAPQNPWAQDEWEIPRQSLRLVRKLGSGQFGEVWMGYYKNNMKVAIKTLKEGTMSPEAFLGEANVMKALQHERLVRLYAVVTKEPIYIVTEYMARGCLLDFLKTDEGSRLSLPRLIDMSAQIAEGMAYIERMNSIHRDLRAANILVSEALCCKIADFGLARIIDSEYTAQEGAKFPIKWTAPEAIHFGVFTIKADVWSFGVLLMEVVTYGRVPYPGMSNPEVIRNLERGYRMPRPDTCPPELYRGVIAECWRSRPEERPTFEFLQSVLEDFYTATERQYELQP

Structure (SMILES): C=CC(=O)N1CCC(CNc2ncnc(N)c2-c2ccc(Oc3ccccc3)cc2)CC1 [Evobrutinib, evobrutinib]
- inhibition, BLK (BLK; [1]): 36%
- inhibition, EGFR (EGFR; [1]): 0%
- inhibition, TEC (TEC): 82%
- inhibition, TXK (TXK; [1]): 36%

Structure (SMILES): CC#CC(=O)N1CC[C@@H](n2c(=O)n(-c3ccc(Oc4ccccc4)cc3)c3c(N)ncnc32)C1 [Tirabrutinib, tirabrutinib]
- IC50 (Her2): 7.31 µM
- IC50 (BLK; read-out: IC50, BLK, Table S3 heat map, ref SI 1-19): 0.3 µM
- IC50 (TXK; Table S3 heat map, ref SI 1-19): 0.092 µM

Structure (SMILES): NC(=O)[C@H]1CCN(c2ncnc(N)c2F)C[C@@H]1N1CCC[C@@H](Nc2cc(Cl)cc(C(F)(F)F)c2)C1=O [Vecabrutinib]
- IC50 (BTK): 0.003 µM
- IC50 (EGFR; Table S3 heat map, ref SI 1-19): > 6 µM

Structure (SMILES): C=CC(=O)N1CCC([C@@H]2CCNc3c(C(N)=O)c(-c4ccc(Oc5ccccc5)cc4)nn32)CC1 [Zanubrutinib, zanubrutinib]
- IC50 (Her2): 0.661 µM

Structure (SMILES): CC#CC(=O)N1CCC[C@H]1c1nc(-c2ccc(C(=O)Nc3ccccn3)cc2)c2c(N)nccn12 [acalabrutinib]
- % Fluorescence, Basolateral side (permeability to the BBB) (HBEC-5i cell model): 29.2%
- IC50 (MOLM-13 cells (AML)): 28.4 ± 0.03 µM

Structure (SMILES): C=CC(=O)N1CCC[C@@H](n2nc(-c3ccc(Oc4ccccc4)cc3)c3c(N)ncnc32)C1 [ibrutinib, reference compound]
- IC50 (DoHH-2 cells (DLBCL)): ~0.07 µM
- reduction in percentage of metastases (Raji cells; 10 mg/kg i.p. every 2 days, n = 5/group): around 30%
- Metastasis volume, Brain, Average (Raji cells; [2]): 0.78 mm³
- Metastasis volume, Liver, Average (Raji cells; [2]): 4.73 mm³
- Metastasis volume, Lung, Average (Raji cells; [2]): 26.92 mm³
- Metastasis volume, Spinal, Average (Raji cells; [2]): 51.37 mm³
- Secondary tumour, Average (Raji cells; [2]): 64.21 mm³
- Metastasis volume, Brain, single animals (Raji cells; [3]): 0.86 mm³ and 0.82 mm³ and 0.00 mm³ and 1.72 mm³ and 0.48 mm³
- Metastasis volume, Liver, single animals (Raji cells; [3]): 12.05 mm³ and 11.54 mm³ and 0.03 mm³ and 0.00 mm³ (2×)
- Metastasis volume, Lung, single animals (Raji cells; [3]): 134.59 mm³ and 0.00 mm³ (4×)
- Metastasis volume, Spinal, single animals (Raji cells; [3]): 55.71 mm³ and 86.64 mm³ and 4.378 mm³ and 10.76 mm³ and 99.35 mm³
- Secondary tumour, single animals (Raji cells; [3]): 96.59 mm³ and 0.00 mm³ (3×) and 224.46 mm³
- IC50 (Raji cells (BL)): 36.2 ± 0.31 µM
- % Fluorescence, Basolateral side (permeability to the BBB) (HBEC-5i cell model): 51.9%
- IC50 (MOLM-13 cells (AML)): ~0.46 µM
- IC50 (HL-60 cells (APML)): 7.74 ± 0.03 µM

Structure (SMILES): CC1(C)CCC(CN2CCN(c3ccc(C(=O)NS(=O)(=O)c4ccc(NCC5CCOCC5)c([N+](=O)[O-])c4)c(Oc4cnc5[nH]ccc5c4)c3)CC2)=C(c2ccc(Cl)cc2)C1 [venetoclax, reference compound]
- effect on tumor incidence and burden (PBMCs from CLL patients): major impact on tumor incidence and burden
